Results on 33 molecules are retold here after ChEMBL document CHEMBL2095176, “GSK Tuberculosis Screening Data”.

Data set [1] relates to Mycobacterium tuberculosis H37Rv. The data set is described as follows: microbe, parasite or virus in culture.
Description: GSK_TB: Intracellular minimum inhibitory concentration (MIC) H37Rv assay
Data set [2] in a line: physchem. Conditions: octanol/water.
Description: GSK_TB: GSK in-house hydrophobicity assay (logP)
A short description of data set [3]: physchem. The following applies: phosphate buffered saline, pH 7.4.
A short description of data set [4]: physchem. The following applies: buffer, pH 7.4.
Description: GSK_TB: GSK in-house hydrophobicity assay at pH7.4 (logD)

Molecules are shown by their SMILES. In brackets after ≈: the same amount, converted by molar mass.

In data set [1], `CN1CCN(c2cc(-c3ccncc3)nc(-c3ccccc3)n2)CC1` displayed an MIC90 of 9.02 µM (≈ 2.99 µg/mL). Further, in “physchem [2]”, the logP – broadly, a log measure of how a compound divides between an organic and an aqueous phase – is 5.54. The solubility (kinetic) (usually solubility judged after dilution from a stock solution rather than from solid) in the data set “physchem [3]” is 379 µM (≈ 126 µg/mL). Further, in “physchem [4]”, the log distribution coefficient (logD) (usually lipophilicity at a set pH, counting ionised and neutral species) stood at 4.88.

In data set [1], `O=C(NCc1cc(Cl)cc(Cl)c1)c1c(C(F)(F)F)nc2ccccn12` gave an MIC90 of 3.1 µM (≈ 1.2 µg/mL). This molecule also yielded a logP in “physchem [2]” of 6.48. Further, the kinetic solubility in the data set “physchem [3]” is 1 µM (≈ 0.388 µg/mL). Besides, the logD in the data set “physchem [4]” came to 6.09.

Molecule `Cc1ccc2nc(C(F)(F)F)c(C(=O)NCc3ccc4c(c3)OCO4)n2c1` returned an MIC90 in data set [1] of 1.1 µM (≈ 0.415 µg/mL). Besides, the logP in “physchem [2]” was 4.98. The same molecule had a solubility (kinetic) in the data set “physchem [3]” of 22 µM (≈ 8.3 µg/mL). The molecule further had a logD in “physchem [4]” of 4.79.

`COc1ccc2cc(C(=O)Nc3ccc(C4CCN(C)CC4)cc3)sc2c1` returned an MIC90 in data set [1] of 9.55 µM (≈ 3.63 µg/mL). In “physchem [2]”, this molecule registered a logP of 5.93. In the data set “physchem [3]”, this molecule gave a kinetic solubility of 62 µM (≈ 23.6 µg/mL). In addition, the log distribution coefficient (logD) in “physchem [4]” was found to be 3.11.

With `Cc1ccc2nc(C(F)(F)F)c(C(=O)NCc3cc(Cl)cc(Cl)c3)n2c1`, the MIC90 in data set [1] was determined as 0.9 µM (≈ 0.362 µg/mL). In “physchem [2]”, the logP worked out at 7.04. Besides, the kinetic solubility in the data set “physchem [3]” turned out to be 1 µM (≈ 0.402 µg/mL). In addition, the logD in the data set “physchem [4]” amounted to 6.65.

In turn, `CCOc1ccc(OCc2ccc(C(=O)NNC(=O)c3ccc([N+](=O)[O-])o3)cc2)cc1` showed an MIC90 in data set [1] of 2.5 µM (≈ 1.06 µg/mL). The same molecule displayed a logP in the data set “physchem [2]” of 4.88. Further, the kinetic solubility in “physchem [3]” is 1 µM (≈ 0.425 µg/mL). In the data set “physchem [4]”, this molecule yielded a logD of 4.32.

`Nc1cc(OCc2ccccc2)ccc1Nc1ccccc1` had an MIC90 in data set [1] of 9.44 µM (≈ 2.74 µg/mL). The molecule further displayed a lipophilicity (logP) in the data set “physchem [2]” of 6.94. The kinetic solubility in “physchem [3]” was 1 µM (≈ 0.29 µg/mL). This molecule registered a pH-dependent lipophilicity (logD) in the data set “physchem [4]” of 6.65.

In data set [1], `COc1cc(CN2CCC3(C=Cc4ccccc43)CC2)cc2c1OCO2` gave an MIC90 of 9.5 µM (≈ 3.32 µg/mL). The molecule also displayed a log partition coefficient (logP) in “physchem [2]” of 8.25. In the data set “physchem [3]”, this molecule yielded a solubility (kinetic) of 121 µM (≈ 42.3 µg/mL). The molecule also registered a logD in the data set “physchem [4]” of 7.03.

As for `c1cncc(NCc2ccc(-c3cc4ccncc4cc3OC3CCNCC3)s2)c1`, the MIC90 in data set [1] is 8.61 µM (≈ 3.59 µg/mL). The molecule also returned a log partition coefficient (logP) in “physchem [2]” of 4.23. Besides, the kinetic solubility in the data set “physchem [3]” was found to be 167 µM (≈ 69.6 µg/mL). The logD in the data set “physchem [4]” amounted to 1.9.

For `C=CCNc1nc(SC)nc2ccccc12`, the MIC90 in data set [1] amounted to 3.2 µM (≈ 0.74 µg/mL). This molecule gave a logP in the data set “physchem [2]” of 5.13. Moreover, the solubility (kinetic) in “physchem [3]” came to 279 µM (≈ 64.5 µg/mL). For the same molecule, the logD in “physchem [4]” worked out at 4.97.

`c1csc(-c2nnc(Sc3ccnc(N4CCN(c5ccncc5)CC4)n3)n2CCCN2CCOCC2)c1` gave an MIC90 in data set [1] of 3.43 µM (≈ 1.88 µg/mL). In “physchem [2]”, this molecule displayed a logP of 3.12. Besides, the solubility (kinetic) in the data set “physchem [3]” came out at 185 µM (≈ 102 µg/mL). The same molecule returned a logD in “physchem [4]” of 2.08.

`c1ccc(-c2csc(Nc3nc4cc5c(cc4s3)OCO5)n2)nc1`: the MIC90 in data set [1] was determined as 2.7 µM (≈ 0.957 µg/mL). This molecule gave a logP in the data set “physchem [2]” of 5.06. Moreover, the kinetic solubility in the data set “physchem [3]” is 1 µM (≈ 0.354 µg/mL). This molecule also had a logD in “physchem [4]” of 5.07.

Take `Br.CC(C)(C)c1ccccc1OCCCON1C(=N)N=C(N)NC1(C)C`: in data set [1], the MIC90 is 2.3 µM. In addition, the logP in “physchem [2]” amounted to 6.14. The molecule also gave a kinetic solubility in “physchem [3]” of 363 µM. The logD in the data set “physchem [4]” was determined as 4.04.

In data set [1], `CC(=O)NCCn1c(Sc2ccnc(N3CCN(c4ccncc4)CC3)n2)nnc1-c1ccccc1` had an MIC90 of 8.91 µM (≈ 4.47 µg/mL). In “physchem [2]”, this molecule came in with a logP of 1.82. The kinetic solubility in the data set “physchem [3]” was 135 µM (≈ 67.7 µg/mL). Besides, the logD in the data set “physchem [4]” amounted to 1.06.

In the case of `CCc1ccc(C2CC(C(F)(F)F)n3ncc(C(=O)NCc4cccs4)c3N2)cc1` (configuration not stated), in data set [1], the MIC90 amounted to 4.37 µM (≈ 1.9 µg/mL). In the data set “physchem [2]”, this molecule returned a logP of 7.27. This molecule returned a kinetic solubility in “physchem [3]” of 1 µM (≈ 0.434 µg/mL). In the data set “physchem [4]”, the logD came out at 6.99.

In data set [1], `Brc1cncc(-c2cc(NCCCn3ccnc3)nc(-c3ccccc3)n2)c1` registered an MIC90 of 5.19 µM (≈ 2.26 µg/mL). Besides, the logP in “physchem [2]” amounted to 5.83. In addition, in “physchem [3]”, the solubility (kinetic) was found to be 15 µM (≈ 6.53 µg/mL). Besides, the logD in “physchem [4]” was 5.53.

Molecule `Br.CCCc1cc(C(C)=O)ccc1OCCCON1C(=N)N=C(N)NC1(C)C` came in with an MIC90 in data set [1] of 2.34 µM. Also, in “physchem [2]”, the logP worked out at 4.02. In the data set “physchem [3]”, this molecule returned a solubility (kinetic) of 201 µM. The molecule also had a logD in the data set “physchem [4]” of 2.92.

`COc1cc(Cc2cnc(N)nc2N)c2cnccc2c1N(C)C` displayed an MIC90 in data set [1] of 2.99 µM (≈ 0.968 µg/mL). Further, the logP in the data set “physchem [2]” was determined as 2.61. The molecule further came in with a solubility (kinetic) in “physchem [3]” of 304 µM (≈ 98.6 µg/mL). The molecule further returned a logD in the data set “physchem [4]” of 2.55.

Regarding `Cc1cc(OCC(=O)NCc2ccccc2)c2cc(Br)ccc2n1`, the MIC90 in data set [1] was found to be 2.3 µM (≈ 0.886 µg/mL). In the data set “physchem [2]”, this molecule displayed a logP of 5.13. Further, the solubility (kinetic) in “physchem [3]” turned out to be 15 µM (≈ 5.78 µg/mL). Moreover, the logD in the data set “physchem [4]” is 4.97.

With `O=C(/C=C/c1ccccc1)N1CCN(Cc2cccc(OCc3ccccc3)c2)CC1`, the MIC90 in data set [1] is 8.22 µM (≈ 3.39 µg/mL). Besides, the logP in the data set “physchem [2]” was determined as 7.54. The kinetic solubility in the data set “physchem [3]” is 61 µM (≈ 25.2 µg/mL). The logD in the data set “physchem [4]” was 7.21.

Consider `Cc1ccc2nc(C(F)(F)F)c(C(=O)NCc3ccc(C)o3)n2c1`, for which the MIC90 in data set [1] came out at 3.43 µM (≈ 1.16 µg/mL). Also, the logP in the data set “physchem [2]” stood at 5.18. Moreover, the kinetic solubility in the data set “physchem [3]” was 259 µM (≈ 87.4 µg/mL). The same molecule returned a logD in the data set “physchem [4]” of 4.97.

With `Cc1nc2ccccn2c1C(=O)NCc1ccc(Cl)cc1`, the MIC90 in data set [1] is 0.4 µM (≈ 0.12 µg/mL). This molecule also gave a logP in the data set “physchem [2]” of 4.12. Besides, in the data set “physchem [3]”, the solubility (kinetic) was found to be 405 µM (≈ 121 µg/mL). Besides, in the data set “physchem [4]”, the logD amounted to 4.04.

In data set [1], `c1ccc(-c2nnc(Sc3ccnc(N4CCN(c5ccncc5)CC4)n3)n2CCCN2CCOCC2)nc1` registered an MIC90 of 6.38 µM (≈ 3.48 µg/mL). The lipophilicity (logP) in the data set “physchem [2]” amounted to 3.22. Moreover, in the data set “physchem [3]”, the solubility (kinetic) was 154 µM (≈ 83.9 µg/mL). For the same molecule, the logD in the data set “physchem [4]” stood at 2.08.

For the molecule `Cn1c(=O)c2c([S+](C)[O-])snc2n(C)c1=O` (configuration not stated), in data set [1], the MIC90 worked out at 9.77 µM (≈ 2.53 µg/mL). This molecule displayed a logP in the data set “physchem [2]” of 1.24. This molecule yielded a kinetic solubility in the data set “physchem [3]” of 420 µM (≈ 109 µg/mL). In “physchem [4]”, this molecule yielded a logD of 1.24.

In turn, `Brc1c(-c2ccc3c(c2)OCO3)nc2ncccn12` came in with an MIC90 in data set [1] of 4.7 µM (≈ 1.5 µg/mL). The logP in the data set “physchem [2]” stood at 3.48. For the same molecule, the kinetic solubility in “physchem [3]” was 219 µM (≈ 69.7 µg/mL). The molecule further displayed a logD in “physchem [4]” of 3.48.

For `N=C(Nc1nc(-c2ccccn2)cc2ccccc12)c1cccc(Cl)c1`, the MIC90 in data set [1] amounted to 4.5 µM (≈ 1.61 µg/mL). The same molecule showed a logP in the data set “physchem [2]” of 8.64. The molecule also came in with a solubility (kinetic) in the data set “physchem [3]” of 1 µM (≈ 0.359 µg/mL). In “physchem [4]”, this molecule came in with a logD of 8.24.

Regarding `O=C(COc1ccccc1)N1CCN(c2cnc3ccccc3n2)CC1`, the MIC90 in data set [1] was determined as 3.09 µM (≈ 1.08 µg/mL). Also, the logP in “physchem [2]” stood at 4.72. In addition, the kinetic solubility in “physchem [3]” was found to be 173 µM (≈ 60.3 µg/mL). Besides, the logD in the data set “physchem [4]” is 4.69.

Consider `Cc1ccc2nc(C(F)(F)F)c(C(=O)NCc3cccs3)n2c1`, for which the MIC90 in data set [1] was 0.9 µM (≈ 0.305 µg/mL). In “physchem [2]”, this molecule came in with a logP of 4.98. In “physchem [3]”, this molecule yielded a solubility (kinetic) of 17 µM (≈ 5.77 µg/mL). For the same molecule, the logD in “physchem [4]” amounted to 4.79.

In data set [1], `C[C@@H](NCCc1nc(-c2cn(C)c3ccccc23)no1)C1CCCCC1.Cl` gave an MIC90 of 1.15 µM. Further, the logP in the data set “physchem [2]” is 8.75. The molecule also came in with a solubility (kinetic) in the data set “physchem [3]” of 202 µM. The same molecule had a log distribution coefficient (logD) in “physchem [4]” of 6.56.

For the molecule `O=C(NCc1ccc(Oc2ccccc2)cc1)c1c(C(F)(F)F)nc2ccccn12`, the MIC90 in data set [1] was determined as 0.2 µM (≈ 0.0823 µg/mL). In the data set “physchem [2]”, this molecule registered a logP of 6.58. Also, the kinetic solubility in the data set “physchem [3]” stood at 1 µM (≈ 0.411 µg/mL). In the data set “physchem [4]”, this molecule showed a logD of 6.28.

Consider `Nc1nc2cc(-c3cncc(Oc4ccc(F)cc4)c3)ccc2[nH]1.O=C(O)C(F)(F)F.O=C(O)C(F)(F)F`, for which, in data set [1], the MIC90 came to 0.347 µM. The lipophilicity (logP) in the data set “physchem [2]” amounted to 3.12. In addition, the solubility (kinetic) in “physchem [3]” amounted to 100 µM. In addition, the logD in the data set “physchem [4]” stood at 3.11.

`Cc1cc(OCC(=O)Nc2ccccc2)c2cc(Br)ccc2n1` displayed an MIC90 in data set [1] of 3.3 µM (≈ 1.23 µg/mL). Besides, the logP in “physchem [2]” amounted to 5.44. Further, the kinetic solubility in “physchem [3]” is 16 µM (≈ 5.94 µg/mL). In the data set “physchem [4]”, this molecule returned a logD of 5.25.

On to `c1ccc(SCc2nn3c(-c4ccccc4)nnc3s2)cc1`, for which, in data set [1], the MIC90 was found to be 2.69 µM (≈ 0.873 µg/mL). The molecule also registered a logP in the data set “physchem [2]” of 5.78. Further, in “physchem [3]”, the kinetic solubility amounted to 1 µM (≈ 0.324 µg/mL). In the data set “physchem [4]”, this molecule returned a logD of 5.44.
